# In ChEMBL document CHEMBL1671762, “Tolerance of benznidazole in treatment of Chagas' disease in adults” (Antimicrob Agents Chemother, 2010):
# Experiments:
# [1] = test system: Homo sapiens; assay: Toxicity in human patient infected with Trypanosoma cruzi assessed as occurrence of Anorexia at 5 mg/kg/day for 60 days; format: organism-based; conditions: in vivo, 1440 h
# [2] = test system: Homo sapiens; assay: Toxicity in human patient infected with Trypanosoma cruzi assessed as occurrence of Heartburn at 5 mg/kg/day for 60 days; format: organism-based; conditions: in vivo, 1440 h
# [3] = test system: Homo sapiens; assay: Toxicity in human patient infected with Trypanosoma cruzi assessed as occurrence of Paresthesia at 5 mg/kg/day for 60 days; format: organism-based; conditions: in vivo, 1440 h
# [4] = test system: Homo sapiens; assay: Toxicity in human patient infected with Trypanosoma cruzi assessed as occurrence of Urticaria at 5 mg/kg/day for 60 days; format: organism-based; conditions: in vivo, 1440 h
# [5] = test system: Homo sapiens; assay: Toxicity in human patient infected with Trypanosoma cruzi assessed as occurrence of Diarrhea at 5 mg/kg/day for 60 days; format: organism-based; conditions: in vivo, 1440 h
# [6] = species on record: Homo sapiens; assay: Toxicity in human patient infected with Trypanosoma cruzi assessed as occurrence of dermatitis with cutaneous eruptions on day 7 to 10; format: organism-based; conditions: in vivo
# [7] = test system: Homo sapiens; assay: Toxicity in human patient infected with Trypanosoma cruzi assessed as occurrence of Itching at 5 mg/kg/day for 60 days; format: organism-based; conditions: in vivo, 1440 h
# [8] = test system: Homo sapiens; assay: Toxicity in human patient infected with Trypanosoma cruzi assessed as occurrence of Dysphagia at 5 mg/kg/day for 60 days; format: organism-based; conditions: in vivo, 1440 h
# [9] = species on record: Homo sapiens; assay: Toxicity in human patient infected with Trypanosoma cruzi assessed as occurrence of agranulocytosis after 2nd week of treatment; format: organism-based; conditions: in vivo
# [10] = test system: Homo sapiens; assay: Toxicity in human patient infected with Trypanosoma cruzi assessed as occurrence of Nausea at 5 mg/kg/day for 60 days; format: organism-based; conditions: in vivo, 1440 h
# [11] = test system: Homo sapiens; assay: Toxicity in human patient infected with Trypanosoma cruzi assessed as occurrence of Mucositis at 5 mg/kg/day for 60 days; format: organism-based; conditions: in vivo, 1440 h
# [12] = test system: Homo sapiens; assay: Toxicity in human patient infected with Trypanosoma cruzi assessed as occurrence of dolichocolon at 5 mg/kg/day for 60 days; format: organism-based, Colon; conditions: in vivo, 1440 h
# [13] = test system: Homo sapiens; assay: Toxicity in human patient infected with Trypanosoma cruzi assessed as occurrence of Hearing impairment at 5 mg/kg/day for 60 days; format: organism-based; conditions: in vivo, 1440 h
# [14] = species on record: Homo sapiens; assay: Toxicity in human patient infected with Trypanosoma cruzi assessed as occurrence of polyneuropathy on 4th week of treatment; format: organism-based; conditions: in vivo
# [15] = test system: Homo sapiens; assay: Toxicity in human patient infected with Trypanosoma cruzi assessed as occurrence of Gastrointestinal disorders at 5 mg/kg/day for 60 days; format: organism-based; conditions: in vivo, 1440 h
# [16] = test system: Homo sapiens; assay: Toxicity in human patient infected with Trypanosoma cruzi assessed as occurrence of Petechial rash at 5 mg/kg/day for 60 days; format: organism-based; conditions: in vivo, 1440 h
# [17] = species on record: Homo sapiens; assay: Toxicity in human patient infected with Trypanosoma cruzi assessed as occurrence of lymphadenopathy; format: organism-based; conditions: in vivo
# [18] = species on record: Homo sapiens; assay: Toxicity in human patient infected with Trypanosoma cruzi assessed as occurrence of paresthesias on 4th week of treatment; format: organism-based; conditions: in vivo
# [19] = test system: Homo sapiens; assay: Toxicity in human patient infected with Trypanosoma cruzi assessed as occurrence of Dyshidrosis at 5 mg/kg/day for 60 days; format: organism-based; conditions: in vivo, 1440 h
# [20] = test system: Homo sapiens; assay: Toxicity in human patient infected with Trypanosoma cruzi assessed as occurrence of Articular involvement at 5 mg/kg/day for 60 days; format: organism-based; conditions: in vivo, 1440 h
# [21] = test system: Homo sapiens; assay: Toxicity in human patient infected with Trypanosoma cruzi assessed as occurrence of Erythema nodosum at 5 mg/kg/day for 60 days; format: organism-based; conditions: in vivo, 1440 h
# [22] = species on record: Homo sapiens; assay: Toxicity in human patient infected with Trypanosoma cruzi assessed as occurrence of hypersensitivity on day 7 to 10; format: organism-based; conditions: in vivo
# [23] = test system: Homo sapiens; assay: Toxicity in human patient infected with Trypanosoma cruzi assessed as occurrence of Abdominal bloating at 5 mg/kg/day for 60 days; format: organism-based, Abdomen; conditions: in vivo, 1440 h
# [24] = test system: Homo sapiens; assay: Toxicity in human patient infected with Trypanosoma cruzi assessed as occurrence of Dermatological disorder at 5 mg/kg/day for 60 days; format: organism-based; conditions: in vivo, 1440 h
# [25] = species on record: Homo sapiens; assay: Toxicity in human patient infected with Trypanosoma cruzi assessed as occurrence of arthralgias; format: organism-based; conditions: in vivo
# [26] = test system: Homo sapiens; assay: Toxicity in human patient infected with Trypanosoma cruzi assessed as occurrence of Aphthous stomatitis at 5 mg/kg/day for 60 days; format: organism-based; conditions: in vivo, 1440 h
# [27] = test system: Homo sapiens; assay: Toxicity in human patient infected with Trypanosoma cruzi assessed as occurrence of Palmar-plantar rash at 5 mg/kg/day for 60 days; format: organism-based; conditions: in vivo, 1440 h
# [28] = species on record: Homo sapiens; assay: Toxicity in human patient infected with Trypanosoma cruzi assessed as occurrence of thrombopenic purpura after 2nd week of treatment; format: organism-based; conditions: in vivo
# [29] = species on record: Homo sapiens; assay: Toxicity in human patient infected with Trypanosoma cruzi assessed as occurrence of polyneuritis on 4th week of treatment; format: organism-based; conditions: in vivo
# [30] = test system: Homo sapiens; assay: Toxicity in human patient infected with Trypanosoma cruzi assessed as occurrence of Epigastralgia at 5 mg/kg/day for 60 days; format: organism-based; conditions: in vivo, 1440 h
# [31] = test system: Homo sapiens; assay: Toxicity in human patient infected with Trypanosoma cruzi assessed as occurrence of Hyperpigmentation at 5 mg/kg/day for 60 days; format: organism-based; conditions: in vivo, 1440 h
# [32] = test system: Homo sapiens; assay: Toxicity in human patient infected with Trypanosoma cruzi assessed as occurrence of Edema at 5 mg/kg/day for 60 days; format: organism-based; conditions: in vivo, 1440 h
# [33] = test system: Homo sapiens; assay: Toxicity in human patient infected with Trypanosoma cruzi assessed as occurrence of cardiac disorders at 5 mg/kg/day for 60 days; format: organism-based, Heart; conditions: in vivo, 1440 h
# [34] = test system: Homo sapiens; assay: Toxicity in human patient infected with Trypanosoma cruzi assessed as occurrence of Arthromyalgia at 5 mg/kg/day for 60 days; format: organism-based; conditions: in vivo, 1440 h
# [35] = test system: Homo sapiens; assay: Toxicity in human patient infected with Trypanosoma cruzi assessed as occurrence of Fever at 5 mg/kg/day for 60 days; format: organism-based; conditions: in vivo, 1440 h
# [36] = test system: Homo sapiens; assay: Toxicity in human patient infected with Trypanosoma cruzi assessed as occurrence of Weakness at 5 mg/kg/day for 60 days; format: organism-based; conditions: in vivo, 1440 h
# [37] = test system: Homo sapiens; assay: Toxicity in human patient infected with Trypanosoma cruzi assessed as occurrence of Arthritis at 5 mg/kg/day for 60 days; format: organism-based; conditions: in vivo, 1440 h
# [38] = test system: Homo sapiens; assay: Toxicity in human patient infected with Trypanosoma cruzi assessed as occurrence of Headache at 5 mg/kg/day for 60 days; format: organism-based; conditions: in vivo, 1440 h
# [39] = test system: Homo sapiens; assay: Toxicity in human patient infected with Trypanosoma cruzi assessed as occurrence of Vomiting at 5 mg/kg/day for 60 days; format: organism-based; conditions: in vivo, 1440 h
# [40] = species on record: Homo sapiens; assay: Toxicity in human patient infected with Trypanosoma cruzi assessed as occurrence of myalgias; format: organism-based; conditions: in vivo
compound,measurement,setting,value
O=C(Cn1ccnc1[N+](=O)[O-])NCc1ccccc1 [BENZNIDAZOLE],Activity,[1],40%
same,Activity,[2],Toxic
same,Activity,[3],27.6%
same,Activity,[4],43.4%
same,Activity,[5],Toxic
same,Activity,[6],Toxic
same,Activity,[7],13.2%
same,Activity,[8],Toxic
same,Activity,[9],Toxic
same,Activity,[10],Toxic
same,Activity,[11],Toxic
same,Activity,[12],1.9%
same,Activity,[13],1%
same,Activity,[14],Toxic
same,Activity,[15],15%
same,Activity,[16],35.8%
same,Activity,[17],Toxic
same,Activity,[18],Toxic
same,Activity,[19],Toxic
same,Activity,[20],36.2%
same,Activity,[21],Toxic
same,Activity,[22],Toxic
same,Activity,[23],Toxic
same,Activity,[24],50.5%
same,Activity,[25],Toxic
same,Activity,[26],1%
same,Activity,[27],Toxic
same,Activity,[28],Toxic
same,Activity,[29],Toxic
same,Activity,[30],Toxic
same,Activity,[31],Toxic
same,Activity,[32],Toxic
same,Activity,[33],12.4%
same,Activity,[34],Toxic
same,Activity,[35],11%
same,Activity,[36],30%
same,Activity,[37],Toxic
same,Activity,[38],56.2%
same,Activity,[39],Toxic
same,Activity,[40],Toxic
